This passage reports IC50 results from patent publication US20220194945A1, “Imidazolopyridine Compounds For IRE1 Inhibition” (Optikira, LLC, priority 2019, published 2022).

For assay [1], the system named is XBP1 splicing. The experiment in a line: Cellular XBP1 splicing assay. The assay is classed as cell-based. The following applies: ARPE-19 cells stably expressing XBP1-nano-luciferase, thapsigargin 150 nM, 4 hour incubation. The method, then: Cellular XBP1 Splicing Assay
ARPE-19 cells stably expressing XBP1 (a.a. 1-376) with nano-luciferase gene sequence linked so it is in frame when XBP1 is spliced, were cultured in F12 media, 10% FBS, 0.044% sodium bicarbonate, 150 μg/ml hygromycin B and seeded for assays at 5,000 cells in 384 well plates in culture media without hygromycin B and incubated at 37° C./5% CO2. After overnight incubation test compounds were added to the cell plate in a 10-point ½ log dilution series in duplicate (final DMSO concentration 0.117%). After further incubation of 30 minutes thapsigargin was added (final concentration 150 nM) and then another 4 hour incubation. A NanoLuc luciferase assay (Promega) was used according to the manufacturer's instructions to detect the luciferase and luminescence measured on a luminometer (EnVision, PerkinElmer). IC50 values calculated by fitting a sigmoidal curve to percent inhibition of control of compound concentration.
(§1) In vitro assay data are for the inhibition of RNase activity of IRE1α. Cellular assay (IC50 data) are for the XBP1 splicing assay.

The target of assay [2] is T1, IRE1α (Homo sapiens, UniProt O75460).
T1 construct: purchased Signal Chem E31-11G
T1 sequence (O75460 468-977 limits assumed): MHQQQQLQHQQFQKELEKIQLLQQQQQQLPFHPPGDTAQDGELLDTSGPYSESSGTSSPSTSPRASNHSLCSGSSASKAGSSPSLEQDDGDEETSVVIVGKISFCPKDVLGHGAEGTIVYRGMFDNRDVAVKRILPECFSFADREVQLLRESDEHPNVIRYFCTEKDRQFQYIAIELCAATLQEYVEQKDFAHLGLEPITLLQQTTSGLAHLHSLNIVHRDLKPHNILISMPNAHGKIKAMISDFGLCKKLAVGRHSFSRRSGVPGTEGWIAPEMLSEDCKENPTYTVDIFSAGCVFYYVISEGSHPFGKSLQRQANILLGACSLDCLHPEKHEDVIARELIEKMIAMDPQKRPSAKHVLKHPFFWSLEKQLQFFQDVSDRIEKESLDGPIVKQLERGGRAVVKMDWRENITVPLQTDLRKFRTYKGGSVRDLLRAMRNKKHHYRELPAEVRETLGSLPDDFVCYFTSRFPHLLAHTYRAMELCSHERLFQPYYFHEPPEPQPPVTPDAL
The experiment in a line: Biochemical assay: inhibition of RNase activity of IRE1α. Conditions: IRE1α kinase (E31-11G, Signal Chem) 0.325 nM, substrate 100 nM, 30 min pre-incubation, read-out: In vitro assay IC50. The method, then: Biochemical Assay: Inhibition of RNase activity of IRE1α
The RNase reactions were performed in 384 well black ProxiPlate-384 Plus plates (PERKIN Elmer) using 50 mM Tris assay buffer with 0.5 mM MgCl2, 10 mM KCl, 0.03% Tween, 2 mM DTT and 1% DMSO. Test compounds were prepared on the day of assay and dispensed using D300 digital dispenser as a 10-point ½ log dilution series in duplicate, normalized to a final DMSO concentration of […]. Test compounds were pre-incubated for 30 min at room temperature with IRE1α kinase (E31-11G from Signal Chem) in 2.5 μL of assay buffer. Then 2.5 μl of assay buffer containing substrate (5′ Alexa Fluor 647-rCrArU rGrUrC rCrGrC rArGrC rGrCrArUrG-Iowa Black RQ quencher 3′) added, giving a final concentration of enzyme of 0.325 nM and of substrate of 100 nM. After 20 minutes incubation at room temperature the reactions were stopped by added 5 μL of 5M urea, incubated at room temperature for 10 minutes and fluorescence measured on a plate reader (EnVision, PerkinElmer) IC50 values calculated by fitting a sigmoidal curve to percent inhibition of control versus compound concentration.
as §1

As a reminder, the IC50 is the point on the concentration scale where inhibition reaches its midpoint. As for `Cc1cncc(S(=O)(=O)Nc2ccc(-c3nc(C(C)C)n4c(C5=CCC(NC6COC6)CC5)cnc(N)c34)cc2F)c1` (stereo not drawn) [Example 13, N-(4-(8-Amino-3-isopropyl-5-(4-(oxetan-3-ylamino)cyclohex-1-en-1-yl)imidazo[1,5-a]pyrazin-1-yl)-2-fluorophenyl)-5-methylpyridine-3-sulfonamide], the values for the IC50 in assay [1] (Homo sapiens) and in assay [2] were 6400 nM and 360 nM, respectively.
Regarding `Cc1nc(NS(=O)(=O)c2ccccc2Cl)ccc1-c1nc(C(C)C)n2c(C3=CCC(NC4COC4)CC3)cnc(N)c12` (stereo not drawn) [Example 21, N-(5-(8-amino-3-isopropyl-5-(4-(oxetan-3-ylamino)cyclohex-1-en-1-yl)imidazo[1,5-a]pyrazin-1-yl)-6-methylpyridin-2-yl)-2-chlorobenzenesulfonamide], the IC50 in assay [1] (Homo sapiens) was 6100 nM; in assay [2], > 1000 nM.
In the case of `CC(C)c1nc(-c2cc(F)c(NS(=O)(=O)c3ccccc3F)cc2F)c2c(N)ncc(C3=CCC(NC4COC4)CC3)n12` (stereo not drawn) [Example 7, N-(4-(8-Amino-3-isopropyl-5-(4-(oxetan-3-ylamino)cyclohex-1-en-1-yl)imidazo[1,5-a]pyrazin-1-yl)-2,5-difluorophenyl)-2-fluorobenzenesulfonamide], the IC50 worked out at 540 nM in assay [1] (Homo sapiens) and 150 nM in assay [2].
For the molecule `CC(C)c1nc(-c2ccc(NS(=O)(=O)c3ccccn3)c(F)c2)c2c(N)ncc(C3=CCC(NC4COC4)CC3)n12` (stereo not drawn) [Example 14, N-(4-(8-Amino-3-isopropyl-5-(4-(oxetan-3-ylamino)cyclohex-1-en-1-yl)imidazo[1,5-a]pyrazin-1-yl)-2-fluorophenyl)pyridine-2-sulfonamide], the IC50 in assay [1] (Homo sapiens) came out at 5400 nM.
As for `CC(C)c1nc(-c2ccc(NS(=O)(=O)c3ccccc3Cl)c(F)c2)c2c(N)ncc(C3=CCC(N4CCOCC4)CC3)n12` (stereo not drawn) [Example 18, N-(4-(8-Amino-3-isopropyl-5-(4-morpholinocyclohex-1-en-1-yl)imidazo[1,5-a]pyrazin-1-yl)-2-fluorophenyl)-2-chlorobenzenesulfonamide], the values for the IC50 in assay [1] (Homo sapiens) and in assay [2] were 85 nM and 82 nM, respectively.
For `CC(C)c1nc(-c2ccc(NS(=O)(=O)c3ccccc3Cl)c(F)c2)c2c(N)ncc([C@H]3CC[C@H](N)CC3)n12` [Example 2, N-(4-(8-Amino-5-((1r,4r)-4-aminocyclohexyl)-3-isopropylimidazo[1,5-a]pyrazin-1-yl)-2-fluorophenyl)-2-chlorobenzenesulfonamide] the same measures were 15 nM and 15 nM.
As to `CC(C)c1nc(-c2ccc(NS(=O)(=O)c3ccc(C(F)(F)F)nc3)c(F)c2)c2c(N)ncc(C3=CCC(NC4COC4)CC3)n12` (stereo not drawn) [Example 12, N-(4-(8-Amino-3-isopropyl-5-(4-(oxetan-3-ylamino)cyclohex-1-en-1-yl)imidazo[1,5-a]pyrazin-1-yl)-2-fluorophenyl)-6-(trifluoromethyl)pyridine-3-sulfonamide], the figures for the IC50 in assay [1] (Homo sapiens) and in assay [2] were 6600 nM and 140 nM, respectively.
The corresponding values for `CC(C)c1nc(-c2ccc(NS(=O)(=O)c3ccccc3F)c(F)c2)c2c(N)ncc(C3=CCC(NC4COC4)CC3)n12` (stereo not drawn) [Example 6, N-(4-(8-Amino-3-isopropyl-5-(4-(oxetan-3-ylamino)cyclohex-1-en-1-yl)imidazo[1,5-a]pyrazin-1-yl)-2-fluorophenyl)-2-fluorobenzenesulfonamide] are 98 nM and 150 nM.
On to `CC(C)c1nc(-c2ccc(NS(=O)(=O)c3ccccc3Cl)c(F)c2)c2c(N)ncc([C@H]3CC[C@@H](N)CC3)n12` [Example 1, N-(4-(8-Amino-5-((1s,4s)-4-aminocyclohexyl)-3-isopropylimidazo[1,5-a]pyrazin-1-yl)-2-fluorophenyl)-2-chlorobenzenesulfonamide], for which the figures for the IC50 in assay [1] (Homo sapiens) and in assay [2] were 510 nM and 290 nM, respectively.
Consider `CC(C)c1nc(-c2ccc(NS(=O)(=O)c3ccccc3Cl)c(F)c2)c2c(N)ncc([C@H]3CC[C@@H](NC4COC4)CC3)n12` [Example 3, N-(4-(8-Amino-3-isopropyl-5-((1s,4s)-4-(oxetan-3-ylamino)cyclohexyl)imidazo[1,5-a]pyrazin-1-yl)-2-fluorophenyl)-2-chlorobenzenesulfonamide], for which the IC50 in assay [1] (Homo sapiens) was 300 nM; in assay [2] it was 280 nM.
For the molecule `CC(C)c1nc(-c2cc(F)c(NS(=O)(=O)c3ccccc3Cl)cc2F)c2c(N)ncc(C3=CCC(NC4COC4)CC3)n12` (stereo not drawn) [Example 8, N-(4-(8-Amino-3-isopropyl-5-(4-(oxetan-3-ylamino)cyclohex-1-en-1-yl)imidazo[1,5-a]pyrazin-1-yl)-2,5-difluorophenyl)-2-chlorobenzenesulfonamide], the half-inhibitory concentration (IC50) in assay [1] (Homo sapiens) is 170 nM; in assay [2] it was 110 nM.
Turning to `COc1ccc(S(=O)(=O)Nc2ccc(-c3nc(C(C)C)n4c(C5=CCC(NC6COC6)CC5)cnc(N)c34)cc2F)cn1` (stereo not drawn) [Example 11, N-(4-(8-Amino-3-isopropyl-5-(4-(oxetan-3-ylamino)cyclohex-1-en-1-yl)imidazo[1,5-a]pyrazin-1-yl)-2-fluorophenyl)-6-methoxypyridine-3-sulfonamide], the IC50 in assay [1] (Homo sapiens) is 3100 nM; in assay [2], 420 nM.
On to `CC(C)c1nc(-c2cnc(NS(=O)(=O)c3ccccc3Cl)c(F)c2)c2c(N)ncc(C3=CCC(NC4COC4)CC3)n12` (stereo not drawn) [Example 10, N-(5-(8-Amino-3-isopropyl-5-(4-(oxetan-3-ylamino)cyclohex-1-en-1-yl)imidazo[1,5-a]pyrazin-1-yl)-3-fluoropyridin-2-yl)-2-chlorobenzenesulfonamide], for which the values for the IC50 in assay [1] (Homo sapiens) and in assay [2] were 7700 nM and 61 nM, respectively.
The corresponding values for `CC(C)c1nc(-c2ccc(NS(=O)(=O)Cc3ccccc3Cl)c(F)c2)c2c(N)ncc(C3=CCC(N(C)C)CC3)n12` (stereo not drawn) [Example 22] are 1.7 nM and 1.5 nM.
Regarding `CC(C)c1nc(-c2ccc(NS(=O)(=O)c3ccccc3Cl)c(F)c2)c2c(N)ncc([C@H]3CC[C@H](NC4COC4)CC3)n12` [Example 4, N-(4-(8-Amino-3-isopropyl-5-((1r,4r)-4-(oxetan-3-ylamino)cyclohexyl)imidazo[1,5-a]pyrazin-1-yl)-2-fluorophenyl)-2-chlorobenzene sulfonamide], the IC50 in assay [1] was 5 nM; in assay [2] it was 6.4 nM.
For the molecule `Cc1nc(S(=O)(=O)Nc2ccc(-c3nc(C(C)C)n4c(C5=CCC(NC6COC6)CC5)cnc(N)c34)cc2F)cs1` (stereo not drawn) [Example 15, N-(4-(8-Amino-3-isopropyl-5-(4-(oxetan-3-ylamino)cyclohex-1-en-1-yl)imidazo[1,5-a]pyrazin-1-yl)-2-fluorophenyl)-2-methylthiazole-4-sulfonamide], the IC50 came out at 6500 nM in assay [1] (Homo sapiens) and 480 nM in assay [2].
With `Cc1nc(CS(=O)(=O)Nc2ccc(-c3nc(C(C)C)n4c(C5=CCC(N)CC5)cnc(N)c34)cc2F)cs1` (stereo not drawn) [Example 17, N-(4-(8-Amino-5-(4-aminocyclohex-1-en-1-yl)-3-isopropylimidazo[1,5-a]pyrazin-1-yl)-2-fluorophenyl)-1-(2-methylthiazol-4-yl)methanesulfonamide], the values for the IC50 in assay [1] (Homo sapiens) and in assay [2] were 7450 nM and 40 nM, respectively.
As to `CC(C)c1nc(-c2ccc(NS(=O)(=O)c3ccccc3F)c(F)c2Cl)c2c(N)ncc(C3=CCC(NC4COC4)CC3)n12` (stereo not drawn) [Example 9, N-(4-(8-Amino-3-isopropyl-5-(4-(oxetan-3-ylamino)cyclohex-1-en-1-yl)imidazo[1,5-a]pyrazin-1-yl)-3-chloro-2-fluorophenyl)-2-fluorobenzenesulfonamide], the IC50 in assay [1] (Homo sapiens) turned out to be 760 nM; in assay [2], 69 nM.
Turning to `COCCNC1CC=C(c2cnc(N)c3c(-c4ccc(NS(=O)(=O)c5ccccc5Cl)c(F)c4)nc(C(C)C)n23)CC1` (stereo not drawn) [Example 19, N-(4-(8-amino-3-isopropyl-5-(4-((2-methoxyethyl)amino)cyclohex-1-en-1-yl)imidazo[1,5-a]pyrazin-1-yl)-2-fluorophenyl)-2-chlorobenzenesulfonamide], the IC50 in assay [1] (Homo sapiens) was 41 nM; in assay [2], 44 nM.
In the case of `CC(C)c1nc(-c2ccc(NS(=O)(=O)c3ccccc3Cl)c(F)c2)c2c(N)ncc(C3=CCC(NCCS(C)(=O)=O)CC3)n12` (stereo not drawn) [Example 16, N-(4-(8-Amino-3-isopropyl-5-(4-((2-(methylsulfonyl)ethyl)amino)cyclohex-1-en-1-yl)imidazo[1,5-a]pyrazin-1-yl)-2-fluorophenyl)-2-chlorobenzenesulfonamide], the IC50 amounted to 110 nM in assay [1] (Homo sapiens) and 11 nM in assay [2].
